Measurements reported in patent US11541027B2 (DelMar Pharmaceuticals, Inc., priority 2014, dated 2023).

What was measured:
[1] = test system: H1975 (TKI-resistant) human lung adenocarcinoma xenograft tumors; test: H1975 NSCLC xenograft tumor model in female Rag2 mice
Method: Rag2 mice bearing subcutaneous human lung adenocarcinoma xenograft tumors of either TKI-resistant (H1975) or TKI-sensitive (A549) origin were treated.
Two human NSCLC cell lines, A549 (TKI-sensitive) and H1975 (TKI-resistant), were used as xenograft tumor models in female Rag2 mice. The mice were 6 to 8 weeks of age and weighed 18-23 grams. 10 mice were used per group.
Rag2 mice bearing subcutaneous human lung adenocarcinoma xenograft tumors of either TKI-sensitive (A549) or TKI-resistant (H1975) origin were treated. […] Saline was used as control treatment. Disease progression was evaluated by tumor volume, clinical observations and body weight measurements. Blood samples were analyzed for CBC/differential analyses to assess myelosuppression or other changes in blood chemistry.
Cell number for inoculation was 5×10^6 cells for A549 cells in an injection volume of 50 μL per animal. For H1975 cells, cell number for inoculation was 2×10^6 cells in an injection volume of 50 μL per animal.
Treatment was initiated at average tumor volume of 100-150 mm^3.
Tumor growth delay (TGD) was calculated according to Equation (2): TGD=DTtx−DTcontrol (2).
For these calculations, TV is tumor volume, tx is treatment, int is initial, DT is doubling time for mean tumor volume from 200 mm^3 to 400 mm^3 for A549 or from 300 mm^3 to 600 mm^3 for H1975. MTV is mean tumor volume in mm^3 and TCR is tumor control ratio.
Disease progression was evaluated by tumor volume, clinical observations and body weight measurements.

[2] = Stability of reconstituted dianhydrogalactitol stock solution; assay type: physicochemical; settings: 8 mg/mL in 0.9% sodium chloride for injection
Method: For administration, 5 mL of 0.9% sodium chloride for injection, USP (saline) was added to yield a DAG solution with a concentration of 8 mg/mL.

[3] = test system: A549; test: Cytotoxicity in NSCLC tumor models; assay type: cell-based, human; settings: A549, p53 wt; N = 3
Description: (§1) The cell lines include cell lines with wild-type p53, cell lines with mutant p53, and cell lines in which p53 has been knocked out (“null”). The properties of these cell lines are described in F. Bunz et al., “Requirement for p53 and p21 to Sustain G2 Arrest After DNA Damage,” Science 282: 1497-1501 (1998), incorporated herein by this reference.

[4] = test system: H1299; test: Cytotoxicity in NSCLC tumor models; assay type: cell-based, human; settings: H1299, p53 null; N = 3
Description: as §1

[5] = test system: H157; test: Cytotoxicity in NSCLC tumor models; assay type: cell-based, human; settings: H157, p53 mu; N = 3
Description: as §1

[6] = test system: H1975; test: Cytotoxicity in NSCLC tumor models; assay type: cell-based, human; settings: H1975, p53 mu; N = 3
Description: as §1

[7] = test system: H2122; test: Cytotoxicity in NSCLC tumor models; assay type: cell-based, human; settings: H2122, p53 mu; N = 3
Description: as §1

[8] = test system: H226; test: Cytotoxicity in NSCLC tumor models; assay type: cell-based, human; settings: H226, p53 wt; N = 3
Description: as §1

[9] = test system: H460; test: Cytotoxicity in NSCLC tumor models; assay type: cell-based, human; settings: H460, p53 wt; N = 3; listed as DAG
Description: as §1

[10] = test system: H838; test: Cytotoxicity in NSCLC tumor models; assay type: cell-based, human; settings: H838, p53 wt; N = 3
Description: as §1

[11] = test system: SkLU1; test: Cytotoxicity in NSCLC tumor models; assay type: cell-based, human; settings: SkLU1, p53 mu; N = 3
Description: as §1

[12] = 4 mg/kg i.p., stopped after 6 doses

## dianhydrogalactitol
[1]; 2 mg/kg i.p. M, W, F × 3
  MTV at Day 31: 396 mm^3
  Median survival: 31 days
[1]; 2 mg/kg i.p. M, W, F × 3, tumor control ratio
  TCR at Day 31: 0.87
[1]; 3 mg/kg i.p. M, W, F × 3
  MTV at Day 31: 383 mm^3
  Median survival: 31 days
[1]; 3 mg/kg i.p. M, W, F × 3, tumor control ratio
  TCR at Day 31: 0.84
[1]; 4 mg/kg i.p. (group 5), treatment stopped after 6 doses, mice then quickly recovered
  body weight: significant body weight loss
[1]; [12]
  MTV at Day 31: 262 mm^3
  Median survival: 41 days
[1]; 4 mg/kg i.p., stopped after 6 doses, tumor control ratio
  TCR at Day 31: 0.57
[2]; 4° C.
  time for which the stock solution was stable: 24 h
[2]; room temperature
  time for which the stock solution was stable: 4 h
[3]
  IC50: 1.75 µM
[4]
  IC50: 2.37 µM
[5]
  IC50: 4.48 µM
[6]
  IC50: 0.9 µM
[7]
  IC50: 2.84 µM
[8]
  IC50: 6.11 µM
[9]
  IC50: 0.49 µM
[10]
  IC50: 4.52 µM
[11]
  IC50: 2.72 µM
